According to patent publication US20090036461A1, “Use of Azabicyclo Hexane Derivatives” (priority 2005, published 2009):

Tests used:
[1] = test system: male rats; experiment: sexual incentive motivation test in male rats after acute administration; type: in vivo, Wistar rats; settings: -1 hour; for Time sexual incentive zone (s) / Time social incentive zone / n. of visits social incentive zone / n. of visits to sex. Incentive zone: male rats, n = 9, mean ± s.e.m.
Description: (§1) Background: In order to evaluate the effect on natural rewards and to potentially differentiate this approach compared with clinically active gold standards, the effect of the title compound (0.03, 0.3 and 3 mg/kg i.p.; −1 hour, prepared in an analogous way with Example 40) on sexual desire and consummatory performance was evaluated in the rat after acute administration. The effect of the title compound was assessed according to a Latin squared experimental design in male (about 300 g upon arrival) and female (250 g upon arrival) Wistar rats.
(§2) Method—Male rats, sexually experienced were treated with the title compound and submitted 1-hr later to a sexual incentive motivation test (10 minutes) in which male rats were singly exposed to receptive female and active male incentives (Agmo A., Journal of Comparative Psychology. 117(1), March 2003, 3-14). The following parameters were scored: (1) time spent in the incentive zones (close to the incentive cage); (2) number of visits to the zones, and (3) preference score (time spent in the sexual incentive zone/(time in the sexual incentive zone+time in the social incentive zone)). Immediately after the incentive motivation test each subject was transferred to an observation cage in the presence of a receptive female and its copulatory behaviour was then recorded until the end of the 1st post-ejaculatory interval. In the observation cage, the following behavioural parameters were recorded: (1) mount latency (time from the introduction of the female until the first mount with pelvic thrusting); (2) intromission latency (time from the introduction of the female until the first mount with vaginal penetration); (3) ejaculation latency (time from the 1st intromission until ejaculation); (4) post-ejaculatory interval (time from ejaculation until the following intromission); (5) number of mounts, and (6) number of intromission.
(§3) Results—Data are expressed as mean ±s.e.m.

[2] = target: D3 (Homo sapiens, UniProt P35462); experiment: functional pKi (fpKi) at D3, comparison of separated enantiomers; type: biochemical; settings: difference in fpKi between the two separated enantiomers of the same example
[3] = test system: male rats; experiment: copulatory (consummatory) behaviour of male rats with a receptive female; type: in vivo, Wistar rats; settings: -1 hour; for Ejaculation latency / Intromission latency / Mount latency / Post ejaculatory interval / n. of intromissions / n. of mounts: male rats, n = 9, mean ± s.e.m.
Description: as §1, §2, §3

[4] = 0.03, 0.3 and 3 mg/kg i.p., result in words

D3, sequence (P35462 whole entry): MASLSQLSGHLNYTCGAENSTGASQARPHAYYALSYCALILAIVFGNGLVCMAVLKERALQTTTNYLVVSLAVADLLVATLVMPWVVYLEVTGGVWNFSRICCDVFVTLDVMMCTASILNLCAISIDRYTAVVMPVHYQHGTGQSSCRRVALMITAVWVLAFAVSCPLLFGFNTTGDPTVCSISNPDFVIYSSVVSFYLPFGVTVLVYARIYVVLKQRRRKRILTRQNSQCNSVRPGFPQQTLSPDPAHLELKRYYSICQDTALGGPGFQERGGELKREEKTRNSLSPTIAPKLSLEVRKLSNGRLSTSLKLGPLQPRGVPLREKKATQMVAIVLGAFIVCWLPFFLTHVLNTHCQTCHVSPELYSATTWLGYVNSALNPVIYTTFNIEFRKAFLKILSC

SMILES: Cc1ncoc1-c1nnc(SCCCN2C[C@@H]3C[C@]3(c3ccc(C(F)(F)F)cc3F)C2)n1C.Cl (single isomer, unassigned) [Example 40]
- effect on sexual desire of male rats exposed to sexual and social stimuli [1, 4]: did not affect sexual desire
- Time sexual incentive zone (s) ([1]; 0.03 mg/kg i.p.): 367.57 ± 23.53++ s
- Time social incentive zone ([1]; 0.03 mg/kg i.p.): 73.69 ± 12.48 s
- n. of visits social incentive zone ([1]; 0.03 mg/kg i.p.): 15.33 ± 1.60
- n. of visits to sex. Incentive zone ([1]; 0.03 mg/kg i.p.): 23.44 ± 1.95++
- Time sexual incentive zone (s) ([1]; 0.3 mg/kg i.p.): 335.12 ± 32.47++ s
- Time social incentive zone ([1]; 0.3 mg/kg i.p.): 86.84 ± 13.38 s
- n. of visits social incentive zone ([1]; 0.3 mg/kg i.p.): 17.44 ± 2.49
- n. of visits to sex. Incentive zone ([1]; 0.3 mg/kg i.p.): 23.89 ± 2.06++
- Time sexual incentive zone (s) ([1]; 3 mg/kg i.p.): 355.91 ± 13.70++ s
- Time social incentive zone ([1]; 3 mg/kg i.p.): 76.83 ± 10.05 s
- n. of visits social incentive zone ([1]; 3 mg/kg i.p.): 14.00 ± 1.85
- n. of visits to sex. Incentive zone ([1]; 3 mg/kg i.p.): 21.78 ± 1.72++
- fpKi (D3) higher than the other enantiomer [2]: > 1 log-unit
- effect on ejaculation patterns [3, 4]: significant increase in the number of mounts, ejaculation latency and post-ejaculatory interval
- Ejaculation latency ([3]; 0.03 mg/kg i.p.): 202.2 ± 19.6 s
- Intromission latency ([3]; 0.03 mg/kg i.p.): 6.3 ± 0.8 s
- Mount latency ([3]; 0.03 mg/kg i.p.): 4.6 ± 0.8 s
- Post ejaculatory interval ([3]; 0.03 mg/kg i.p.): 403.0 ± 37.4 s
- n. of intromissions ([3]; 0.03 mg/kg i.p.): 15.8 ± 1.3
- n. of mounts ([3]; 0.03 mg/kg i.p.): 3.4 ± 0.7
- Ejaculation latency ([3]; 0.3 mg/kg i.p.): 228.3 ± 53.3 s
- Intromission latency ([3]; 0.3 mg/kg i.p.): 7.0 ± 1.1 s
- Mount latency ([3]; 0.3 mg/kg i.p.): 5.3 ± 0.8 s
- Post ejaculatory interval ([3]; 0.3 mg/kg i.p.): 455.3 ± 73.4 s
- n. of intromissions ([3]; 0.3 mg/kg i.p.): 15.6 ± 1.5
- n. of mounts ([3]; 0.3 mg/kg i.p.): 2.3 ± 0.8
- Ejaculation latency ([3]; 3 mg/kg i.p.): 272.8 ± 41.6 s
- Intromission latency ([3]; 3 mg/kg i.p.): 8.8 ± 2.0 s
- Mount latency ([3]; 3 mg/kg i.p.): 6.4 ± 1.5 s
- Post ejaculatory interval ([3]; 3 mg/kg i.p.): 485.1 ± 67.3 s
- n. of intromissions ([3]; 3 mg/kg i.p.): 16.8 ± 2.1
- n. of mounts ([3]; 3 mg/kg i.p.): 4.8 ± 1.2
